Data set [1] in a line: Phase 1 clinical study: plasma pharmacokinetics of prodrug and ibuprofen. It is filed as in vivo, human. Particulars: 70 mg; for AUC0-12 / Cmax: human, plasma; for AUC0-12: read-out: prodrug AUC0-12, geometric mean; for Cmax: read-out: prodrug Cmax, geometric mean. The protocol:
Following a 5-day washout period, 2-(diethylamino)ethyl 2-(4-isobutylphenyl)propionate was administered b.i.d. during Days 6-11, and a morning dose only was administered to Day 12. Blood samples were collected for PK analysis over the 120-hour post-dose period following the Day 12 dose. Additionally, pre-dose blood samples were collected on Day 7 through Day 11 to evaluate steady-state status.
The same study procedures were followed as described in Part 1.
For single dose PK, serial blood samples were collected on Day 1 dose at the following time points: 0 (pre-dose), 0.25, 0.5, 0.75, 1, 1.5, 2, 2.5, 3, 4, 5, 6, 8, 10, 12, 18, 24, 48, 72, 96 and 120 hours post-dose.
For multiple-dose PK, serial blood samples were collected on Day 12 at the following time points: 0 (pre-dose), 0.25, 0.5, 0.75, 1, 1.5, 2, 2.5, 3, 4, 5, 6, 8, 10, 12, 18, 24, 48, 72, 96 and 120 hours post-dose.
The relative bioavailability of the single dose 70 mg topical application vs. 70 mg spray application was determined based on AUCtau, AUCinf and Cmax. The 90% confidence intervals (CIs) on the ratio of topical application vs. spray application were calculated.

Data set [2] relates to osteoarthritis of the knee. Particulars: cited from earlier work.
Data set [3] relates to Osteoarthritis. Particulars: cited from earlier work.
Data set [4] deals with Osteoarthritis. The conditions noted are these: n=107; placebo −33.6; cited from earlier work.
Where [5] appears, read: topical or ocular, Day 1, 70 mg topical.
Setting [6] is: topical or ocular, Day 12, 70 mg topical.

SMILES strings stand for the structures. Read-outs that look alike come from different tables or passages of the source.

With `CCN(CC)CCOC(=O)C(C)c1ccc(CC(C)C)cc1.Cl` (stereo not drawn) [2-(diethylamino)ethyl 2-(4-isobutylphenyl)propionate hydrochloride], the entries for the “prodrug AUC0-12 ratio Topical/Spray” value in data set [1] (Day 1) and in data set [1] (Day 12) were 3.28 and 0.91, respectively. Moreover, the “prodrug Cmax ratio Topical/Spray” value in data set [1] (Day 1) is reported as 1.34; in data set [1] (Day 12), 0.93. For the same compound, the AUC0-12 stood at 0.913 ng·h/mL in data set [1] (setting [5]); 0.953 ng·h/mL in data set [1] (setting [6]); 0.279 ng·h/mL in data set [1] (topical, Day 1, 70 mg spray); 1.05 ng·h/mL in data set [1] (topical, Day 12, 70 mg spray). Besides, the Cmax worked out at 0.138 ng/mL in data set [1] (setting [5]); 0.143 ng/mL in data set [1] (setting [6]); 0.102 ng/mL in data set [1] (topical, Day 1, 70 mg spray); 0.155 ng/mL in data set [1] (topical, Day 12, 70 mg spray).

On to `COc1ccc2cc([C@H](C)C(=O)O)ccc2c1` [Naproxen], for which, in data set [2] (naproxen group), the “average daily paracetamol use” value is on record as 670 mg. In addition, the “difference from placebo, sign and symptoms of OA” value in the data set with Osteoarthritis [3] (500 mg BID oral, Week 12) is −5.8. The “patients improved by 2 grades or more from baseline (physician's global assessment)” value in the data set on Osteoarthritis [3] (500 mg BID) is given as 33%. For the same compound, in the data set with Osteoarthritis [3] (500 mg, BID, orally, 12 Weeks, scale 0 to 96), the “Mean ± SEM WOMAC Osteoarthritis Index Composite Score Change from Baselines” value is −11.9 ± 1.29. In addition, the “Patient's Assessment of Arthritis Pain (VAS 0-100 mm), change” value with Osteoarthritis [4] was −37.5 mm.

On to `COc1ccc2cc([C@H](C)C(=O)OCCCCO[N+](=O)[O-])ccc2c1` [naproxcinod], for which the “decrease of paracetamol use vs placebo group” value in data set [2] (active groups) was 19.2% to 24.9.

Source of the values: patent publication US20240024273A1, “TOPICAL ADMINISTRATION OF 2-(DIETHYLAMINO)ETHYL 2-(4-ISOBUTYLPHENYL)PROPRIONATE FOR TREATMENT OF DISEASES” (TECHFIELDS PHARMA CO., LTD., priority 2020, published 2024).
